The values that follow come from patent US20230174584A1, “Antibiotic Compounds” (priority 2019, published 2023).

Format in all cases: cell-based, Staphylococcus aureus
One assay has as its system NRS17. Description: MIC assay, VISA and VRSA panel. The procedure: (§1) The antibacterial activity of the compounds was tested against a panel of bacteria, including Gram-positive bacteria (S. aureus ATCC29213, S. aureus USA300, S. aureus LIM-2, NR-45881, S. aureus HIP13419, NR-46413, E. faecium E155, E. faecium E7314, E. faecium E980, E. faecalis E1246, E. faecalis E7406 and S. pneumonia 153). The antibacterial activity of the compounds was further tested against S. aureus NY-155, NR-46236, S. aureus HIP12864, NR-46074, S. aureus 880 (BR-VRSA), NR-49120, E. faecalis E1246, E. faecalis E7604, as well as some Gram-negative bacteria (Escherichia coli and Klebsiella pneumoniae). Minimum inhibitory concentrations (MICs) in μg/mL were performed according to the CLSI guidelines. From glycerol stocks, bacterial strains were cultured on blood agar plates and incubated at 37° C. for 18 h. A single colony was transferred to tryptic soy broth (TSB) with 0.002% polysorbate 80 (p80). For the Enterococcus, VISA and VRSA strains, the cultures were grown at 37° C. until the optical density of the suspension reached a level equivalent to the 0.5 McFarland standard. The bacterial suspensions were diluted in TSB with 0.002% p80 to reach a bacterial cell density of 10^6 CFU/mL. In case of the other (vancomycin-sensitive) S. aureus strains, the direct colony suspension method was used. For these strains, after transfer of the colonies to TSB with 0.002% p80, they were immediately diluted to 10^6 CFU/mL, instead of incubated prior to this dilution. In the case of S. pneumonia, direct colony suspension was used by immediately suspending multiple colonies from fresh blood agar plates in TSB+0.002% p80 to an OD600 of 0.5 and subsequent dilution to 10^6 CFU mL^−1 in TSB+0.002% p80+5% lysed horse blood. Antibiotic dilutions for this strains were also made in TSB+0.002% p80+5% lysed horse blood. Both agar and microplates containing S. pneumonia were incubated at 37° C. with 5% CO2 for 24 h with constant shaking (600 rpm). […] The cultures were grown to exponential phase (OD600=0.5) at 37° C. […] In polypropylene 96-well microtiter plates, test compounds were added in biological triplicates and serial diluted 2-fold by transfer and mixing from one well to the next to achieve a final volume of 50 μL per well. An equal volume of bacterial suspension (10^6 CFU mL^−1) was added to the wells. The plates were sealed with breathable membranes and incubated at 37° C. for 24 h with constant shaking (600 rpm). In polypropylene microtiter plates, 100 μL of the test compounds was added to the first row in biological triplicates, and 50 μL of media was added to the other wells. The compounds were subjected to serial dilution by transfer and mixing of 50 μL from one well to the next. Subsequently, 50 μL of bacterial suspension (10^6 CFU/mL) was added to the wells. The plates were sealed with breathable membranes and incubated at 37° C. for 24 h with constant shaking (600 rpm). Positive growth control consisted of wells with bacterial suspension and without antibiotic. Negative growth control consisted of solely media without bacterial suspension or antibiotic. The MICs were determined from the median of a minimum of triplicates.

The subject of a further assay is NRS18. The assay can be described thus: MIC assay, VISA and VRSA panel. The procedure:
as §1

The subject of a further assay is NRS51. The assay can be described thus: MIC assay, VISA and VRSA panel. The procedure:
as §1

Another assay concerns NRS52. The assay can be described thus: MIC assay, VISA and VRSA panel. As for the experimental part: as §1
The subject of another assay is VRS11a. The assay can be described thus: MIC assay, VISA and VRSA panel. The procedure:
as §1

The subject of a further assay is VRS2. Description: MIC assay, VISA and VRSA panel. As for the experimental part:
as §1

A further assay has as its system VRS5. The assay can be described thus: MIC assay, VISA and VRSA panel. The procedure:
as §1

A further assay concerns VRS7. The assay can be described thus: MIC assay, VISA and VRSA panel. As for the experimental part:
as §1

Another assay relates to S. aureus ATCC29213. Description: UDP-MurNAc-pentapeptide accumulation assay. The settings on record: S. aureus ATCC29213, 5 μM, 1 h. As for the experimental part:
An overnight culture of bacterial suspension (S. aureus ATCC29213, E. faecium E155, E. faecium E7314 and E. faecium E980) was diluted 100-fold in TSB supplemented with 0.002% p80 and cultured at 37° C. until the optical density of the suspension reached a level equivalent to the 0.5 McFarland standard. Chloramphenicol was added at a final concentration of 130 μg/mL and the culture was incubated for an additional 15 min at 37° C. […] The cultures were incubated at 37° C. for 1 h, after which they were centrifuged to pellet the bacteria. The supernatant was removed and the pellets were resuspended in 1 mL MQ-H2O. The samples were boiled at 100° C. for 15 minutes and subsequently centrifuged at 12000 rpm for 30 minutes. The supernatant of the samples was lyophilized and redissolved in 250 μL buffer A (50 mM ammonium bicarbonate, 5 mM NEt3, pH 8.3). Samples were analyzed by analytical RP-HPLC using a 0-25% buffer B (MeOH) gradient over 25 minutes.
An UDP-MurNAc-pentapeptide accumulation assay was performed to elucidate part of the mechanism of action of the compounds. UDP-MurNAc-pentapeptide is the last soluble precursor of peptidoglycan cell wall biosynthesis. In this assay, live cells accumulate this last soluble precursor when treated with compounds that interfere with the membrane bound stages of peptidoglycan biosynthesis (Sass, V. et al. Human beta-defensin 3 inhibits cell wall biosynthesis in Staphylococci. Infect. Immun. 78, 2793-2800 (2010)).

≈ marks a conversion by molar mass, not a printed value.

As to `CCCCCCCNC(N)=Nc1ccc(CN[C@@]2(C)C[C@H](O[C@H]3[C@H](Oc4c5cc6cc4Oc4ccc(cc4Cl)[C@@H](O)[C@@H](NC(=O)[C@@H](CC(C)C)NC)C(=O)N[C@@H](CC(N)=O)C(=O)N[C@H]6C(=O)N[C@H]4C(=O)N[C@H](C(=O)N[C@H](C(=O)O)c6cc(O)cc(O)c6-c6cc4ccc6O)[C@H](O)c4ccc(c(Cl)c4)O5)O[C@H](CO)[C@@H](O)[C@@H]3O)O[C@@H](C)[C@H]2O)cc1` [Compound 5], the MIC in the assay on NRS17 (strain NRS17) worked out at 0.25 µg/mL (≈ 0.148 µM); in the assay with NRS18 (strain NRS18), 0.125 µg/mL (≈ 0.0738 µM); against NRS51 (strain NRS51), 0.031 µg/mL (≈ 0.0183 µM); against NRS52 (strain NRS52), 0.031 µg/mL (≈ 0.0183 µM); against VRS11a (strain VRS11a), 16 µg/mL (≈ 9.44 µM); with VRS2 (strain VRS2), 0.25 µg/mL (≈ 0.148 µM). Moreover, the MIC in the assay on VRS5 (strain VRS5) and against VRS7 (strain VRS7) was 4 µg/mL (≈ 2.36 µM) each time. Moreover, the “accumulation of UDP-MurNAc-pentapeptide” value in the assay with S. aureus ATCC29213 is reported as “accumulation of UDP-MurNAc-pentapeptide”.

As to `CCCCCCCCNC(N)=Nc1ccc(CN[C@@]2(C)C[C@H](O[C@H]3[C@H](Oc4c5cc6cc4Oc4ccc(cc4Cl)[C@@H](O)[C@@H](NC(=O)[C@@H](CC(C)C)NC)C(=O)N[C@@H](CC(N)=O)C(=O)N[C@H]6C(=O)N[C@H]4C(=O)N[C@H](C(=O)N[C@H](C(=O)O)c6cc(O)cc(O)c6-c6cc4ccc6O)[C@H](O)c4ccc(c(Cl)c4)O5)O[C@H](CO)[C@@H](O)[C@@H]3O)O[C@@H](C)[C@H]2O)cc1` [Compound 6], the “accumulation of UDP-MurNAc-pentapeptide” value with S. aureus ATCC29213 is “accumulation of UDP-MurNAc-pentapeptide”.

Consider `CCCCCCCCCNC(N)=Nc1ccc(CN[C@@]2(C)C[C@H](O[C@H]3[C@H](Oc4c5cc6cc4Oc4ccc(cc4Cl)[C@@H](O)[C@@H](NC(=O)[C@@H](CC(C)C)NC)C(=O)N[C@@H](CC(N)=O)C(=O)N[C@H]6C(=O)N[C@H]4C(=O)N[C@H](C(=O)N[C@H](C(=O)O)c6cc(O)cc(O)c6-c6cc4ccc6O)[C@H](O)c4ccc(c(Cl)c4)O5)O[C@H](CO)[C@@H](O)[C@@H]3O)O[C@@H](C)[C@H]2O)cc1` [Compound 7], for which the “accumulation of UDP-MurNAc-pentapeptide” value with S. aureus ATCC29213 is given as “accumulation of UDP-MurNAc-pentapeptide”.

In the case of `CCCCCCN(CCCCCC)C(N)=Nc1ccc(CN[C@@]2(C)C[C@H](O[C@H]3[C@H](Oc4c5cc6cc4Oc4ccc(cc4Cl)[C@@H](O)[C@@H](NC(=O)[C@@H](CC(C)C)NC)C(=O)N[C@@H](CC(N)=O)C(=O)N[C@H]6C(=O)N[C@H]4C(=O)N[C@H](C(=O)N[C@H](C(=O)O)c6cc(O)cc(O)c6-c6cc4ccc6O)[C@H](O)c4ccc(c(Cl)c4)O5)O[C@H](CO)[C@@H](O)[C@@H]3O)O[C@@H](C)[C@H]2O)cc1` [Compound 12], the MIC in the assay on NRS17 (strain NRS17) is 0.5 µg/mL (≈ 0.283 µM); in the assay with NRS18 (strain NRS18) it was 0.25 µg/mL (≈ 0.142 µM); in the assay on NRS51 (strain NRS51) it was 0.125 µg/mL (≈ 0.0708 µM); against NRS52 (strain NRS52), 0.031 µg/mL (≈ 0.0176 µM); against VRS11a (strain VRS11a) it was 4 µg/mL (≈ 2.27 µM); in the assay with VRS2 (strain VRS2), <0.016 µg/mL. Further, the results for the MIC in the assay with VRS5 (strain VRS5) and in the assay on VRS7 (strain VRS7) were 1 µg/mL (≈ 0.567 µM) and 2 µg/mL (≈ 1.13 µM), respectively.

In the case of `CN[C@H](CC(C)C)C(=O)N[C@H]1C(=O)N[C@@H](CC(N)=O)C(=O)N[C@H]2C(=O)N[C@H]3C(=O)N[C@H](C(=O)N[C@H](C(=O)O)c4cc(O)cc(O)c4-c4cc3ccc4O)[C@H](O)c3ccc(c(Cl)c3)Oc3cc2cc(c3O[C@@H]2O[C@H](CO)[C@@H](O)[C@H](O)[C@H]2O[C@H]2C[C@](C)(NCc3ccc(N=C(N)NC/C=C(\C)CCC=C(C)C)cc3)[C@H](O)[C@H](C)O2)Oc2ccc(cc2Cl)[C@H]1O` [Compound 14], the “accumulation of UDP-MurNAc-pentapeptide” value in the assay on S. aureus ATCC29213 is “accumulation of UDP-MurNAc-pentapeptide”.

As to `CN[C@H](CC(C)C)C(=O)N[C@H]1C(=O)N[C@@H](CC(N)=O)C(=O)N[C@H]2C(=O)N[C@H]3C(=O)N[C@H](C(=O)N[C@H](C(=O)O)c4cc(O)cc(O)c4-c4cc3ccc4O)[C@H](O[C@H]3C[C@](C)(N)[C@@H](O)[C@H](C)O3)c3ccc(c(Cl)c3)Oc3cc2cc(c3O[C@@H]2O[C@H](CO)[C@@H](O)[C@H](O)[C@H]2O[C@H]2C[C@](C)(NCc3ccc(-c4ccc(Cl)cc4)cc3)[C@@H](O)[C@H](C)O2)Oc2ccc(cc2Cl)[C@H]1O` [Oritavancin], the MIC was found to be 4 µg/mL (≈ 2.23 µM) in the assay with NRS17 (Staphylococcus aureus, NRS17); 1 µg/mL (≈ 0.558 µM) against NRS18 (Staphylococcus aureus, NRS18); 0.5 µg/mL (≈ 0.279 µM) in the assay with NRS51 (Staphylococcus aureus, NRS51); 0.5 µg/mL (≈ 0.279 µM) in the assay with NRS52 (Staphylococcus aureus, NRS52); 1 µg/mL (≈ 0.558 µM) in the assay on VRS11a (Staphylococcus aureus); 0.25 µg/mL (≈ 0.139 µM) in the assay on VRS2 (Staphylococcus aureus). Further, the MIC against VRS5 (Staphylococcus aureus) and in the assay on VRS7 (Staphylococcus aureus) was 0.5 µg/mL (≈ 0.279 µM) each time.

`CCCCCCCCCCNCCN[C@@]1(C)C[C@H](O[C@H]2[C@H](Oc3c4cc5cc3Oc3ccc(cc3Cl)[C@@H](O)[C@@H](NC(=O)[C@@H](CC(C)C)NC)C(=O)N[C@@H](CC(N)=O)C(=O)N[C@H]5C(=O)N[C@H]3C(=O)N[C@H](C(=O)N[C@H](C(=O)O)c5cc(O)c(CNCP(=O)(O)O)c(O)c5-c5cc3ccc5O)[C@H](O)c3ccc(c(Cl)c3)O4)O[C@H](CO)[C@@H](O)[C@@H]2O)O[C@@H](C)[C@H]1O` [Telavancin, reference compound]: the MIC worked out at 1 µg/mL (≈ 0.57 µM) with NRS17 (Staphylococcus aureus, NRS17); 0.25 µg/mL (≈ 0.142 µM) against NRS18 (Staphylococcus aureus, NRS18); 0.125 µg/mL (≈ 0.0712 µM) in the assay with NRS51 (Staphylococcus aureus, NRS51); 0.25 µg/mL (≈ 0.142 µM) against NRS52 (Staphylococcus aureus, NRS52); 8 µg/mL (≈ 4.56 µM) in the assay with VRS11a (Staphylococcus aureus); 2 µg/mL (≈ 1.14 µM) with VRS2 (Staphylococcus aureus). Besides, the MIC against VRS5 (Staphylococcus aureus) and against VRS7 (Staphylococcus aureus) was 4 µg/mL (≈ 2.28 µM) throughout.

For `CN[C@H](CC(C)C)C(=O)N[C@H]1C(=O)N[C@@H](CC(N)=O)C(=O)N[C@H]2C(=O)N[C@H]3C(=O)N[C@H](C(=O)N[C@H](C(=O)O)c4cc(O)cc(O)c4-c4cc3ccc4O)[C@H](O)c3ccc(c(Cl)c3)Oc3cc2cc(c3O[C@@H]2O[C@H](CO)[C@@H](O)[C@H](O)[C@H]2O[C@H]2C[C@](C)(N)[C@H](O)[C@H](C)O2)Oc2ccc(cc2Cl)[C@H]1O` [Vancomycin, reference compound], the MIC in the assay on NRS17 (Staphylococcus aureus, NRS17) is 8 µg/mL (≈ 5.52 µM); in the assay with NRS18 (Staphylococcus aureus, NRS18), 8 µg/mL (≈ 5.52 µM); against NRS51 (Staphylococcus aureus, NRS51), 4 µg/mL (≈ 2.76 µM); in the assay with NRS52 (Staphylococcus aureus, NRS52), 4 µg/mL (≈ 2.76 µM); in the assay on VRS11a (Staphylococcus aureus), > 128 µg/mL; against VRS2 (Staphylococcus aureus), 32 µg/mL (≈ 22.1 µM). Also, the MIC in the assay with VRS5 (Staphylococcus aureus) and in the assay with VRS7 (Staphylococcus aureus) was > 128 µg/mL throughout.

As a reminder, the MIC is the lowest concentration that inhibits growth of the organism.
